Source: ChEMBL document CHEMBL4406811, “Optimization and Mechanistic Characterization of Pyridopyrimidine Inhibitors of Bacterial Biotin Carboxylase” (J Med Chem, 2019)
Values after ≈ are worked out from the molar mass of the structure shown. Active and inactive are the calls of the source. The rule behind the calls is not given here.

Columns and labels:
Escherichia coli [1] = test: Induction of cytological changes in Escherichia coli ATCC 25922 assessed as formation of short chains of three to eight cells at 15 ug/ml measured after 2 hrs by FM 4-64/DAPI staining based microscopic analysis; type: functional, organism-based
Biotin carboxylase = Biotin carboxylase (Pseudomonas aeruginosa (strain ATCC 15692 / DSM 22644 / CIP 104116 / JCM14847 / LMG 12228 / 1C / PRS 101 / PAO1), UniProt P37798); test: Inhibition of recombinant N-terminal His-tagged Pseudomonas aeruginosa PAO1 biotin carboxylase expressed in Escherichia coli Rosetta(DE3) pLysS cells using biotin as substrate by spectroscopic analysis
Sequence of Biotin carboxylase (P37798 whole entry, the tested form may be a part): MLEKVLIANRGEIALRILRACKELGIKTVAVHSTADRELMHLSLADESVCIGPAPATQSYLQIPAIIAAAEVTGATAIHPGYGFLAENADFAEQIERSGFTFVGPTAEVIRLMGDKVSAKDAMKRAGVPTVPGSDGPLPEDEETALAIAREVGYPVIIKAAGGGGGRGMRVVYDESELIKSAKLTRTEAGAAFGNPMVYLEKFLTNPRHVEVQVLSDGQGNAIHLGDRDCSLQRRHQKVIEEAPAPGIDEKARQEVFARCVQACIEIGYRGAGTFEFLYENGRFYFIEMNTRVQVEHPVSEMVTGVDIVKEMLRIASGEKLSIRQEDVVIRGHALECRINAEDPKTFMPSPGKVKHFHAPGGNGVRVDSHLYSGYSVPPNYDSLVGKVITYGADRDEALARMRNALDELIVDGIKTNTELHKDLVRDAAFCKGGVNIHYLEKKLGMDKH

ABL1 = ABL1 (Homo sapiens, UniProt P00519); test: Inhibition of full-length recombinant human His-tagged ABL1 cytoplasmic domain expressed in baculovirus expression system at 25 uM using FRET-labeled tyr 02 peptide as substrate measured after 1 hr by Z'-lyte assay relative to control; conditions: probe FRET-labeled tyr 02 peptide
Sequence of ABL1 (P00519 whole entry, the tested form may be a part): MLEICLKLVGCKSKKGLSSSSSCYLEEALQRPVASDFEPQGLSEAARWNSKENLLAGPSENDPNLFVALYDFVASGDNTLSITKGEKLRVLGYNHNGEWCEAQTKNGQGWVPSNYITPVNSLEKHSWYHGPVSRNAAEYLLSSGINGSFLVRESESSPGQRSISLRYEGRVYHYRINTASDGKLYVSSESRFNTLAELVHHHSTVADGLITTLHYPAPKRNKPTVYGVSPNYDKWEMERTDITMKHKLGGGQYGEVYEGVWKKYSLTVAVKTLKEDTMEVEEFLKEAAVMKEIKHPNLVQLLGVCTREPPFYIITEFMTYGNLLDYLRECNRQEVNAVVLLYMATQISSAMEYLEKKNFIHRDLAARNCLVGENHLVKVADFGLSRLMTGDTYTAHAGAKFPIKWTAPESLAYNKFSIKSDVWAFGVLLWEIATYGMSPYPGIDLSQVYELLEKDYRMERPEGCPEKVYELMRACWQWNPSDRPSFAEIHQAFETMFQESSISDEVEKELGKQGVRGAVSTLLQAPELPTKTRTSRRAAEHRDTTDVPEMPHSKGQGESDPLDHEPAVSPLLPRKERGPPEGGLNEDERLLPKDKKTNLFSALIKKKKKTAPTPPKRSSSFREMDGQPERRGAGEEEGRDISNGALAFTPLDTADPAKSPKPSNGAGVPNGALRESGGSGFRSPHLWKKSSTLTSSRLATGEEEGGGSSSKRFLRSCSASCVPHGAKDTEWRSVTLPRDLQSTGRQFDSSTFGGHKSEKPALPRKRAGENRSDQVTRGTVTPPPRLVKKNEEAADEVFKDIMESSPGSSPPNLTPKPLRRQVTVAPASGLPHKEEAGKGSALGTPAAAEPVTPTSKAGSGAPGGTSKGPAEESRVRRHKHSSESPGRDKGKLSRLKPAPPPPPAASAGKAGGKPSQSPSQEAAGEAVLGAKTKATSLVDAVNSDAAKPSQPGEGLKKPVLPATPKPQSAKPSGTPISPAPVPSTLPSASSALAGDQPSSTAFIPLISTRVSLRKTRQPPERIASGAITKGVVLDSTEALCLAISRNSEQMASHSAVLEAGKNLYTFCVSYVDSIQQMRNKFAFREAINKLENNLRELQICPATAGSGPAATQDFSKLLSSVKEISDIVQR

Pseudomonas aeruginosa = test: Antibacterial activity against Pseudomonas aeruginosa PAO1 PAM1262 harboring MexAB-OprM/MexCD-OprJ/MexEF-OprN deletion mutant assessed as mutation frequency at 8 times MIC after 48 hrs by broth microdilution method; type: functional
MET = MET (Homo sapiens, UniProt P08581); test: in vitro; conditions: probe FRET-labeled Tyr 06 peptide
MAPK14 = MAPK14 (Homo sapiens, UniProt Q16539); test: Inhibition of recombinant human full-length GST-tagged MAPK14 expressed in Escherichia coli at 25 uM using FRET-labeled Ser/Thr 15 peptide as substrate measured after 1 hr by Z'-lyte assay relative to control; conditions: probe FRET-labeled Ser/Thr 15 peptide
Sequence of MAPK14 (Q16539 whole entry): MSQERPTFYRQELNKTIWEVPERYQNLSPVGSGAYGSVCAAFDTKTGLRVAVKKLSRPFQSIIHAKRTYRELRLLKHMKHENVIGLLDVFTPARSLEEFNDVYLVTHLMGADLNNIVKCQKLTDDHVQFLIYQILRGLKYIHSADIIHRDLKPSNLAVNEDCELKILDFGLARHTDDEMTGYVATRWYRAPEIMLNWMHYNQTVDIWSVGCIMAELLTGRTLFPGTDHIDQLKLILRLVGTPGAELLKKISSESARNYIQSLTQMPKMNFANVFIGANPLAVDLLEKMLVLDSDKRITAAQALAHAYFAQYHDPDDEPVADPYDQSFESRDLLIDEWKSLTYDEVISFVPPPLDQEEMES

CHEK2 = CHEK2 (Homo sapiens, UniProt O96017); test: Inhibition of recombinant human full-length His-tagged CHEK2 expressed in baculovirus expression system at 25 uM using FRET-labeled Ser/Thr 07 peptide as substrate measured after 1 hr by Z'-lyte assay relative to control; conditions: probe FRET-labeled Ser/Thr 07 peptide
Sequence of CHEK2 (O96017 whole entry): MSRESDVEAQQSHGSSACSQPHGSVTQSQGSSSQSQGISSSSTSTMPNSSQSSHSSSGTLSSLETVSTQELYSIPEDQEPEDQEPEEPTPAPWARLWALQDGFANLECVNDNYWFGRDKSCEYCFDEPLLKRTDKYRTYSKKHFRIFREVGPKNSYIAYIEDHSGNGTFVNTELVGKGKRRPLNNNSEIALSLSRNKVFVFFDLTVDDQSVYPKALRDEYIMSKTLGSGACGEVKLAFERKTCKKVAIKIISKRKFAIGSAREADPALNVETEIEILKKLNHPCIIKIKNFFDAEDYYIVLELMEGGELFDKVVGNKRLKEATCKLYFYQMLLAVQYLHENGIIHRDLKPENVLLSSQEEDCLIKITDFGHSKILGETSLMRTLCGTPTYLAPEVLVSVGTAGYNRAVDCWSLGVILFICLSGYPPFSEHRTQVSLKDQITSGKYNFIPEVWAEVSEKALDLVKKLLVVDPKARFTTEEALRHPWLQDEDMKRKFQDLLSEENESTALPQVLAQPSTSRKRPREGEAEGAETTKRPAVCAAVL

MAPK1 = MAPK1 (Homo sapiens, UniProt P28482); test: Inhibition of recombinant human full-length GST-tagged MAPK1 […] expressed in Escherichia coli at 25 uM using FRET-labeled Ser/Thr 03 peptide as substrate measured after 1 hr by Z'-lyte assay relative to control; conditions: probe FRET-labeled Ser/Thr 03 peptide
Sequence of MAPK1 (P28482 whole entry): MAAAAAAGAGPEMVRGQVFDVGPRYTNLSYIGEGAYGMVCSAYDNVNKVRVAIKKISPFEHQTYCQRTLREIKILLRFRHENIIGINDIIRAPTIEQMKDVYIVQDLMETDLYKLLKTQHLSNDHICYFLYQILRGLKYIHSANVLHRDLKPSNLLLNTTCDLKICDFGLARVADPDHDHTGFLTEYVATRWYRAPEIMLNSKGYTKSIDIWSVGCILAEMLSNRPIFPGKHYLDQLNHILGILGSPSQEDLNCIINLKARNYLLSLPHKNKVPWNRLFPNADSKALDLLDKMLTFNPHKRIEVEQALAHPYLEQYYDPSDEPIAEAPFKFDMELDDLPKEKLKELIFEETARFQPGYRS

IKBKE = IKBKE (Homo sapiens, UniProt Q14164); test: in vitro; conditions: probe FRET-labeled Ser/Thr 11 peptide
Escherichia coli [2] = test: Antibacterial activity against Escherichia coli DM4100 harboring deltatolC mutant measured after 18 to 20 hrs by broth microdilution method; type: functional
FYN = FYN (Homo sapiens, UniProt P06241); test: Inhibition of full-length recombinant human C-terminal His-tagged FYN cytoplasmic domain expressed in baculovirus expression system at 25 uM using FRET-labeled tyr 02 peptide as substrate measured after 1 hr by Z'-lyte assay relative to control; conditions: probe FRET-labeled tyr 02 peptide
Sequence of FYN (P06241 whole entry, the tested form may be a part): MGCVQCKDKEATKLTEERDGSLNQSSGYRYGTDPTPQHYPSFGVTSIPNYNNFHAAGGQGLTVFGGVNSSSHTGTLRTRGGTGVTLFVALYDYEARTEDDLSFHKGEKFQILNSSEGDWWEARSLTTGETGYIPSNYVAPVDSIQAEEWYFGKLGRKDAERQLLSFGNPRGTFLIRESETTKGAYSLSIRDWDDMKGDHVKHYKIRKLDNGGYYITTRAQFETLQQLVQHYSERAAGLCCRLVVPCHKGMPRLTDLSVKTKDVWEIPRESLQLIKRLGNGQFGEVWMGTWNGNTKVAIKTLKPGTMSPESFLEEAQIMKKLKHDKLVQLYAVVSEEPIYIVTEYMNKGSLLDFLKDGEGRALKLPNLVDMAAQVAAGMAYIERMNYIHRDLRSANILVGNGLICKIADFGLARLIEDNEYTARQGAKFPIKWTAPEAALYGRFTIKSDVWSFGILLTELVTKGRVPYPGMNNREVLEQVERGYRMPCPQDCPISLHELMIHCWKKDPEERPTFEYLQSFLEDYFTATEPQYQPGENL

SGK (Sgk1) = SGK (Sgk1) (Homo sapiens, UniProt O00141); test: Inhibition of recombinant human GST-tagged SGK catalytic domain (60 to 431 residues) expressed in baculovirus expression system at 25 uM using FRET-labeled Ser/Thr 06 peptide as substrate measured after 1 hr by Z'-lyte assay relative to control; conditions: probe FRET-labeled Ser/Thr 06 peptide
AURKA = AURKA (Homo sapiens, UniProt O14965); test: Inhibition of recombinant human full-length His-tagged AURKA expressed in baculovirus expression system at 25 uM using FRET-labeled Ser/Thr 01 peptide as substrate measured after 1 hr by Z'-lyte assay relative to control; conditions: probe FRET-labeled Ser/Thr 01 peptide
Sequence of AURKA (O14965 whole entry): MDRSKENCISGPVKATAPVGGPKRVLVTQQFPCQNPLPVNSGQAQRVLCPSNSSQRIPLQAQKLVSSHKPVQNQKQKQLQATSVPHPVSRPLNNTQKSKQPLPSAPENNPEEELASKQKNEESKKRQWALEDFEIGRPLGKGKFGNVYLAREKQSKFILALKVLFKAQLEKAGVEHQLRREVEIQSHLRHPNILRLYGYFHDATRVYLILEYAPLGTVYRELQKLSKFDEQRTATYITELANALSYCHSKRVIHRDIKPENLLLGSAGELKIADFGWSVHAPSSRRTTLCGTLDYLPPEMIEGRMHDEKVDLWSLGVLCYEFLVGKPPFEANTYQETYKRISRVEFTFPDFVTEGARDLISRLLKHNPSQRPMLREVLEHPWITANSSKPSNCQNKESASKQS

CDK1/cyclin B = CDK1/cyclin B (Homo sapiens, UniProt P06493); test: Inhibition of full-length recombinant human His-tagged CDK1/cyclin B expressed in baculovirus expression system at 25 uM using FRET-labeled Ser/Thr 18 peptide as substrate measured after 1 hr by Z'-lyte assay relative to control; conditions: probe FRET-labeled Ser/Thr 18 peptide
Sequence of CDK1/cyclin B (P06493 whole entry): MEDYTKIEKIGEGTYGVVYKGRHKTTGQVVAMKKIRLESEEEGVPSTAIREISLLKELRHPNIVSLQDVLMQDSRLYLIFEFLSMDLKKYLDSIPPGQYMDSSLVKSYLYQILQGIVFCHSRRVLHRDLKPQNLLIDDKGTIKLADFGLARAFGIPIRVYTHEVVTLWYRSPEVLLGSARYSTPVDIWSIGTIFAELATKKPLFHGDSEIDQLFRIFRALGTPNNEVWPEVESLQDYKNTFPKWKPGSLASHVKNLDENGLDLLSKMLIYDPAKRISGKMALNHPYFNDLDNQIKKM
Sequence of CDK1/cyclin B (P14635 whole entry, further chain): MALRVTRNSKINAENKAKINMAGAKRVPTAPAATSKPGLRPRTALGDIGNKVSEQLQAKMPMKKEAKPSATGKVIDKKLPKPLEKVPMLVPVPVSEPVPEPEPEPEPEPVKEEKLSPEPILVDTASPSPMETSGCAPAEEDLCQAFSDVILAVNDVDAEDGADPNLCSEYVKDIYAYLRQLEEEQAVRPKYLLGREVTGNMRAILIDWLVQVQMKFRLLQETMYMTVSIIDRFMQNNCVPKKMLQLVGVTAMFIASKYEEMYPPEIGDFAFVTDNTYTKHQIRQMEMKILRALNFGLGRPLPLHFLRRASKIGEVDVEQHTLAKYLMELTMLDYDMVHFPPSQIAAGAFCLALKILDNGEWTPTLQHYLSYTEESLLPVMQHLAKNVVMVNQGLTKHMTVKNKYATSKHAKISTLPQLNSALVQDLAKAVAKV

Escherichia coli [3] = test: Induction of cytological changes in Escherichia coli ATCC 25922 assessed as formation of short chains of three to eight cells at 100 ug/ml measured after 2 hrs by FM 4-64/DAPI staining based microscopic analysis; type: functional, organism-based
CSNK2A1 = CSNK2A1 (Homo sapiens, UniProt P68400); test: Inhibition of recombinant human full-length His-tagged CSNK2A1 expressed in baculovirus expression system at 25 uM using FRET-labeled Ser/Thr 11 peptide as substrate measured after 1 hr by Z'-lyte assay relative to control; conditions: probe FRET-labeled Ser/Thr 11 peptide
Sequence of CSNK2A1 (P68400 whole entry): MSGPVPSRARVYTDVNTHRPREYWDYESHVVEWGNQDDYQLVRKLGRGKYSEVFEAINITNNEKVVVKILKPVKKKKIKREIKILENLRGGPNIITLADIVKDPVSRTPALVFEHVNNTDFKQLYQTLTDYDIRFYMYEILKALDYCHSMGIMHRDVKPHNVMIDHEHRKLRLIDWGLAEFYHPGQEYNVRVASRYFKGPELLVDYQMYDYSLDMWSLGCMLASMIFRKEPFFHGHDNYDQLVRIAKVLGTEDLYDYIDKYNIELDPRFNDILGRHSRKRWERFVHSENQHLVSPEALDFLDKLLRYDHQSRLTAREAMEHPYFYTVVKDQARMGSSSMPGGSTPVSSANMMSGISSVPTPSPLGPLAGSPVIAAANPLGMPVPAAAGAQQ

IKBKB = IKBKB (Homo sapiens, UniProt O14920); test: in vitro; conditions: probe FRET-labeled Ser/Thr 05 peptide
BTK = BTK (Homo sapiens, UniProt Q06187); test: Inhibition of full-length recombinant human His-tagged BTK cytoplasmic domain expressed in baculovirus expression system at 25 uM using FRET-labeled tyr 01 peptide as substrate measured after 1 hr by Z'-lyte assay relative to control; conditions: probe FRET-labeled tyr 01 peptide

Structure (SMILES)	Activity (Escherichia coli [1])	IC50 (Biotin carboxylase)	inhibition at 1 h, 25 µM (ABL1)	Activity (Pseudomonas aeruginosa)	inhibition at 1 h, 25 µM (MET)	inhibition at 1 h, 25 µM (MAPK14)	inhibition at 1 h, 25 µM (CHEK2)	inhibition at 1 h, 25 µM (MAPK1)	inhibition at 1 h, 25 µM (IKBKE)	MIC (Escherichia coli [2])	inhibition at 1 h, 25 µM (FYN)	inhibition at 1 h, 25 µM (SGK (Sgk1))	inhibition at 1 h, 25 µM (AURKA)	inhibition at 1 h, 25 µM (CDK1/cyclin B)	Activity (Escherichia coli [3])	inhibition at 1 h, 25 µM (CSNK2A1)	inhibition at 1 h, 25 µM (IKBKB)	inhibition at 1 h, 25 µM (BTK)
CC(C)COc1cccc(Cl)c1-c1cc2cnc(N)nc2nc1N1C[C@@H]2[C@@H](N)[C@@H]2C1	Active	≤ 15 nM	30%	2 ×10⁻⁹ No_unit	15%	5%	67%	6%	0%	0.03 µg/mL (≈ 0.0706 µM)	12%							
Nc1ncc2cc(-c3c(Br)cccc3Br)c(N)nc2n1			97%			24%	13%	26%				7%	20%	18%	Active	4%		
Nc1ncc2cc(-c3c(Cl)cccc3-c3cccnc3)c(N3C[C@@H]4[C@@H](N)[C@@H]4C3)nc2n1		≤ 15 nM	38%	9 ×10⁻⁹ No_unit	7%		20%		3%	0.03 µg/mL (≈ 0.0698 µM)	12%		9%	4%		0%	5%	16%
